According to BindingDB's records for doi:10.1021/jm990095j (Medivir, 1999):

What was measured:
Experiment in all cases: HIV-1 RT Assay
[1] = molecular target: T1, Gag-Pol polyprotein [588-1027,K690N]/[588-1147,K690N] (Human immunodeficiency virus 1, UniProt P04585, K690N)
T1 construct: 588-1027; 588-1147

[2] = molecular target: T2, Gag-Pol polyprotein [588-1027]/[588-1147] (Human immunodeficiency virus 1, UniProt P04585)
T2 construct: 588-1027; 588-1147

[3] = molecular target: T3, Gag-Pol polyprotein [588-1127,Y768C]/[588-1147,Y768C] (Human immunodeficiency virus 1, UniProt P04585, Y768C)
T3 construct: 588-1127; 588-1147

SMILES | IC50 ([1]; pH 7.8, 37 °C) [µM] | IC50 ([2]; pH 7.8, 37 °C) [µM] | IC50 [1] [µM] | other results
CN(C)c1ccc(F)c(CCNC(=O)Nc2ccc(Br)cn2)c1F | > 2.5 | 0.025 |  | 
CCOc1ccc(F)c(CCNC(=O)Nc2ccc(Br)cn2)c1Cl | > 2.4 | 0.004 |  | 
COc1c(C(C)=O)ccc(F)c1CCNC(=O)Nc1ccc(Cl)cn1 [1-(5-chloropyridin-2-yl)-3-[2-(3-acetyl-6-fluoro-2-methoxyphenyl)ethyl]urea] | > 2.7 |  |  | 
O=C(Nc1ccc(Cl)cn1)NC1CC1c1c(F)ccc(O)c1Cl (stereo not drawn) [N-[cis-2-(2-Chloro-6-fluoro-3-hydroxyphenyl)cyclopropyl]-N-[2-(5-chloropyridyl)]urea] |  |  | > 2.7 | 
COc1ccc(C(C)=O)c(F)c1CCNC(=O)Nc1ccc(Cl)cn1 [N-[2-(3-Acetyl-2-fluoro-6-methoxyphenethyl)]-N-[2-(5-chloropyridy)]urea] | > 2.7 |  |  | 
COc1ccc(OC)c(CCNC(=O)Nc2ccc(Cl)cn2)c1F [1-(5-chloropyridin-2-yl)-3-[2-(2-fluoro-3,6-dimethoxyphenyl)ethyl]urea] |  | 0.003 |  | 
COc1ccc2c(c1)N(C(=O)OC(C)C)[C@@H](CSC)C(=S)N2 [propan-2-yl (2S)-7-methoxy-2-[(methylsulfanyl)methyl]-3-sulfanylidene-1,2,3,4-tetrahydroquinoxaline-1-carboxylate] |  |  | 0.056 | IC50 [2]: 0.008 µM; IC50 [3]: 0.009 µM
CCC(=O)c1ccc(F)c(C2CC2NC(=O)Nc2ccc(C#N)cn2)c1O (stereo not drawn) [N-[cis-2-(6-Fluoro-2-hydroxy-3-propionylphenyl)cyclopropyl]-N-[2-(5-cyanopyridyl)]urea] |  |  | 0.097 | 
